According to ChEMBL document CHEMBL1133560, “Design and synthesis of new orally active nonpeptidic inhibitors of human neutrophil elastase” (J Med Chem, 2000):

Experiments:
[1] = (§1) Effective dose determined in an animal model which lasted for more than 8 h; type: ADME
[2] = Percent oral bioavailability evaluated in dog; type: ADME, organism-based, Canis lupus familiaris; conditions: in vivo
[3] = as §1; type: functional
[4] = Percent oral bioavailability evaluated in rat; type: ADME, organism-based; conditions: in vivo
[5] = Percent oral bioavailability evaluated in monkey; type: ADME, organism-based; conditions: cercopithecidae, in vivo

ED50 [1] [mg/kg]	bioavailability [2] [%]	bioavailability [4] [%]	bioavailability [5] [%]	SMILES	ED50 [3] [mg/kg]
7.5				CC(C)C(NC(=O)Cn1c(-c2ccc(F)cc2)ncc(N)c1=O)C(=O)C(F)(F)F (stereo not given)	
	31	51	18	CC(C)C(NC(=O)Cn1c(-c2ccccc2)ncc(N)c1=O)C(=O)c1nnc(C(C)(C)C)o1 (stereo not given)	1.4
